Results on 23 compounds are retold here after PubChem BioAssay AID330 (DTP/NCI, 2004).

Structures are written as SMILES. Values joined by “and” are separate entries in the source; they are usually repeats but may differ in a detail not shown here. Equal values may be shown once. Inconclusive results and toxic doses are left out. Square brackets hold non-standard residues; d marks the D form. Peptide text beside a SMILES is read from it. * marks the point of attachment. ξ: configuration not given here. Nphe = O=C(O)CNCc1ccccc1; ξL = CC(C)CC(N)C(=O)O; Ms = CS(=O)(=O)*

The subject of the assay is P388 leukemia ip, CD2F1 mice, survival T/C. Nature of the assay: NCI In Vivo Anticancer Drug Screen. Data for tumor model P388 Leukemia (intraperitoneal) in CD2F1 (CDF1) mice. As to conditions: endpoint: median survival time, higher = longer survival. The essentials:
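Mice carrying the transplanted tumor received test compound or vehicle. Survival was recorded in each group, and the value is the treated-group measurement divided by that of the vehicle-treated control group.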

The mark [1] stands for this setting: dose: 12.5 mg/kg/injection, schedule: Q01DX009 (ip), vehicle: saline with Tween-80.
Setting [2] is: dose: 25.0 mg/kg/injection, schedule: Q01DX009 (ip), vehicle: saline with Tween-80.
[3] abbreviates: dose: 50.0 mg/kg/injection, schedule: Q01DX009 (ip), vehicle: saline with Tween-80.
Where [4] appears, read: dose: 100.0 mg/kg/injection, schedule: Q01DX009 (ip), vehicle: saline with Tween-80.
[5] abbreviates: dose: 50.0 mg/kg/injection, schedule: Q01DX005 (ip), vehicle: Klucel (hydroxypropylcellulose) (HPC).
[6] abbreviates: dose: 100.0 mg/kg/injection, schedule: Q01DX005 (ip), vehicle: Klucel (hydroxypropylcellulose) (HPC).
[7] abbreviates: dose: 200.0 mg/kg/injection, schedule: Q01DX005 (ip), vehicle: Klucel (hydroxypropylcellulose) (HPC).
The mark [8] stands for this setting: dose: 50.0 mg/kg/injection, schedule: Q01DX005 (ip), vehicle: saline with Tween-80.
The mark [9] stands for this setting: dose: 100.0 mg/kg/injection, schedule: Q01DX005 (ip), vehicle: saline with Tween-80.
Where [10] appears, read: dose: 200.0 mg/kg/injection, schedule: Q01DX009 (ip), vehicle: saline with Tween-80.

For the compound `O=c1c2oc3ccccc3c2cnn1CO`, the T/C under setting [1] is 103 % of control and 97 % of control; the T/C under setting [2] is 100 % of control and 105 % of control; the T/C under setting [3] is 102 % of control and 108 % of control; the T/C under setting [4] is 105 % of control and 117 % of control.

Take `CCC(=O)Nc1ccc(C(=O)C(C)=O)cc1`: the T/C (dose: 8.0 mg/kg/injection, schedule: Q01DX009 (ip), vehicle: saline with Tween-80) is 104 % of control; the T/C (dose: 16.0 mg/kg/injection, schedule: Q01DX009 (ip), vehicle: saline with Tween-80) was 104 % of control; the T/C (dose: 32.0 mg/kg/injection, schedule: Q01DX009 (ip), vehicle: saline with Tween-80) is 99 % of control.

Turning to `Nc1nc2c(c(=O)[nH]1)NC(CN(C(=O)CCCl)c1ccc(C(=O)NC(CCC(=O)O)C(=O)O)cc1)CN2` (configuration not stated), the T/C is 101 % of control (dose: 50.0 mg/kg/injection, schedule: Q01DX001 (ip), vehicle: alkali diluted with saline); 104 % of control (dose: 100.0 mg/kg/injection, schedule: Q01DX001 (ip), vehicle: alkali diluted with saline); 101 % of control (dose: 200.0 mg/kg/injection, schedule: Q01DX001 (ip), vehicle: alkali diluted with saline).

Turning to `CC(C)C1CCC2(C)C(CCC3C4(C)CCCC32OC4=O)C1` (configuration not stated), the T/C is, setting by setting: under setting [5], 104 % of control; under setting [6], 99 % of control; under setting [7], 101 % of control.

`CC(C)CC(NC(=O)CN(Cc1ccccc1)S(C)(=O)=O)C(=O)O` (configuration not stated) (Ms-[Nphe]-[ξL]-OH): the T/C was 100 % of control (dose: 12.5 mg/kg/injection, schedule: Q01DX009 (ip), vehicle: other); 104 % of control (dose: 25.0 mg/kg/injection, schedule: Q01DX009 (ip), vehicle: other); 114 % of control (dose: 50.0 mg/kg/injection, schedule: Q01DX009 (ip), vehicle: other); 104 % of control (dose: 100.0 mg/kg/injection, schedule: Q01DX009 (ip), vehicle: other); 100 % of control (dose: 200.0 mg/kg/injection, schedule: Q01DX009 (ip), vehicle: other).

Take `Cc1cc2c(C(C)C)c(O)c(O)c(C=Nc3ccc(C(=O)NCC(=O)O)cc3)c2c(O)c1-c1c(C)cc2c(C(C)C)c(O)c(O)c(C=Nc3ccc(C(=O)NCC(=O)O)cc3)c2c1O`: the T/C runs as follows: under setting [8], 94 % of control; under setting [9], 100 % of control.

For `CC(C)(C)c1cc(C[N+](C)(C)C)c(O)c(C(C)(C)C)c1`, the T/C is 95 % of control (dose: 12.5 mg/kg/injection, schedule: Q01DX005 (ip), vehicle: distilled water + alcohol); 96 % of control (dose: 25.0 mg/kg/injection, schedule: Q01DX005 (ip), vehicle: distilled water + alcohol); 101 % of control and 104 % of control (dose: 50.0 mg/kg/injection, schedule: Q01DX005 (ip), vehicle: distilled water + alcohol).

Regarding `Cc1ccccc1CC1c2[nH]c3ccccc3c2CCN1C` (configuration not stated), the T/C is 109 % of control (dose: 60.0 mg/kg/injection, schedule: Q01DX005 (ip), vehicle: saline with Tween-80) and 109 % of control (dose: 120.0 mg/kg/injection, schedule: Q01DX005 (ip), vehicle: saline with Tween-80).

Consider `CN(C)c1ccc(/C=C(/C#N)c2ccc(Cl)cc2)cc1`, for which the T/C was 97 % of control (dose: 50.0 mg/kg/injection, schedule: Q04DX003 (ip), vehicle: saline with Tween-80); 92 % of control (dose: 100.0 mg/kg/injection, schedule: Q04DX003 (ip), vehicle: saline with Tween-80); 92 % of control (dose: 200.0 mg/kg/injection, schedule: Q04DX003 (ip), vehicle: saline with Tween-80); 92 % of control (dose: 400.0 mg/kg/injection, schedule: Q04DX003 (ip), vehicle: saline with Tween-80).

`O=c1[nH]oc2c1CCNC2`: the T/C is 98 % of control (dose: 100.0 mg/kg/injection, schedule: Q04DX003 (ip), vehicle: saline) and 103 % of control (dose: 200.0 mg/kg/injection, schedule: Q04DX003 (ip), vehicle: saline).

In the case of `COC(=O)c1c([As](C)C)n[n]([Sn]([CH3])([CH3])[CH3])c1C(=O)OC`, the T/C was 88 % of control (dose: 6.25 mg/kg/injection, schedule: Q04DX003 (ip), vehicle: saline) and 99 % of control (dose: 12.5 mg/kg/injection, schedule: Q04DX003 (ip), vehicle: saline).

As to `O=C1C2C3CCC(C2C(=O)N1CO)C1C2C(=O)N(CO)C(=O)C2C31` (configuration not stated), the T/C was 105 % of control under setting [1]; 102 % of control and 116 % of control under setting [2]; 166 % of control under setting [3]; 205 % of control and 208 % of control under setting [4].

On to `O=C(CN1CCCCC1)Nc1ccc(I)cc1`, for which the T/C was 104 % of control under setting [3], 107 % of control under setting [4] and 114 % of control under setting [10].

On to `Nc1nc(Cc2ccccc2)c(CCCNc2ccccc2)c(=O)[nH]1`, for which the T/C by setting is: (dose: 0.78 mg/kg/injection, schedule: Q01DX009 (ip), vehicle: saline) 100 % of control; (dose: 1.56 mg/kg/injection, schedule: Q01DX009 (ip), vehicle: saline) 100 % of control; (dose: 3.13 mg/kg/injection, schedule: Q01DX009 (ip), vehicle: saline) 102 % of control; (dose: 6.25 mg/kg/injection, schedule: Q01DX009 (ip), vehicle: saline) 100 % of control.

Consider `CC1CCC(=O)N1C` (configuration not stated), for which the T/C by setting is: (dose: 100.0 mg/kg/injection, schedule: Q01DX009 (ip), vehicle: saline) 105 % of control; (dose: 200.0 mg/kg/injection, schedule: Q01DX009 (ip), vehicle: saline) 100 % of control; (dose: 400.0 mg/kg/injection, schedule: Q01DX009 (ip), vehicle: saline) 113 % of control.

Turning to `O=C(c1ccccc1)C(CC(C(=O)c1ccccc1)c1ccccc1)c1ccccc1` (configuration not stated), the T/C is, setting by setting: under setting [8], 108 % of control; under setting [9], 96 % of control; (dose: 200.0 mg/kg/injection, schedule: Q01DX005 (ip), vehicle: saline with Tween-80) 99 % of control.

Consider `O=C(Nc1ccc(Nc2ccncc2)cc1)c1ccc([N+](=O)[O-])cc1`, for which the T/C runs as follows: (dose: 100.0 mg/kg/injection, schedule: Q01DX009 (ip), vehicle: Klucel (hydroxypropylcellulose) (HPC)) 90 % of control; (dose: 200.0 mg/kg/injection, schedule: Q01DX009 (ip), vehicle: Klucel (hydroxypropylcellulose) (HPC)) 100 % of control; (dose: 400.0 mg/kg/injection, schedule: Q01DX009 (ip), vehicle: Klucel (hydroxypropylcellulose) (HPC)) 90 % of control.

For the compound `C#CC1CCC(NC(=O)NCCCCCCNC(=O)NC2CCC(C#C)CC2)CC1` (configuration not stated), the T/C is, setting by setting: under setting [5], 90 % of control; under setting [6], 94 % of control; under setting [7], 86 % of control.

On to `CC(=O)OC1=CC2C(OC1=O)C1C=CC2(OC(C)=O)C(=O)O1` (configuration not stated), for which the T/C under setting [3] was 102 % of control, the T/C under setting [4] is 104 % of control and the T/C under setting [10] is 113 % of control.

`CN(Cc1cnc2nc(N)nc(N)c2n1)c1ccc(C(=O)NC(CCC(=O)OC(C)(C)C)C(=O)O)cc1` (configuration not stated): the T/C was 156 % of control (dose: 5.0 mg/kg/injection, schedule: Q03HX024 (ip), vehicle: sodium bicarbonate); 182 % of control (dose: 10.0 mg/kg/injection, schedule: Q03HX024 (ip), vehicle: sodium bicarbonate); 230 % of control (dose: 20.0 mg/kg/injection, schedule: Q03HX024 (ip), vehicle: sodium bicarbonate); 122 % of control (dose: 20.0 mg/kg/injection, schedule: Q04DX003 (ip), vehicle: sodium bicarbonate); 269 % of control (dose: 40.0 mg/kg/injection, schedule: Q03HX024 (ip), vehicle: sodium bicarbonate); 153 % of control (dose: 80.0 mg/kg/injection, schedule: Q03HX024 (ip), vehicle: sodium bicarbonate).

For `O=[N+]([O-])c1c(O)c(CNCCCO)cc(CNCCCO)c1O`, the T/C is 113 % of control (dose: 25.0 mg/kg/injection, schedule: Q01DX009 (ip), vehicle: saline) and 116 % of control (dose: 50.0 mg/kg/injection, schedule: Q01DX009 (ip), vehicle: saline).

In the case of `CC1=C[C@@H]2c3cccc4c3c(cn4C)C[C@H]2N(C)C1`, the T/C was 99 % of control under setting [8] and 100 % of control under setting [9].

As to `OC1c2ccccc2C(O)c2c1ccc1c2CN(Cc2ccccc2)CC1` (configuration not stated), the T/C was 89 % of control (dose: 60.0 mg/kg/injection, schedule: Q01DX005 (ip), vehicle: Klucel (hydroxypropylcellulose) (HPC)); 92 % of control (dose: 120.0 mg/kg/injection, schedule: Q01DX005 (ip), vehicle: Klucel (hydroxypropylcellulose) (HPC)); 92 % of control (dose: 240.0 mg/kg/injection, schedule: Q01DX005 (ip), vehicle: Klucel (hydroxypropylcellulose) (HPC)).
